Experiment [1] deals with T9NB1-RLuc8. Briefly: BRET^2 competitive assay for TCC with nanobody sensor T9NB1-RLuc8/TCC-4′-S—(CH2)2—CO-GFP^2. In kind it is binding, camelid. The following applies: 10 nM T9NB1-RLuc8 and 10 nM TCC-4′-S—(CH2)2—CO-GFP^2, 2% DMSO/PBS, 5 minutes at 22° C. The method, then: Instrumentation: Simultaneous dual emission BRET measurements were carried out with a CLARIOstar microplate reader (BMG LabTech). BRET^2 measurements used the BRET^2 emission filter set comprising RLuc/CLZ400a emission filter (410 nm bandpass, 80 nm) and the GFP^2 emission filter (515 nm bandpass, 30 nm). BRET^2 ratios were calculated as ratios of integrated acceptor emission channel intensity to integrated donor emission channel intensity.
BRET^2 assay: All reactions were carried out in white 96-well plates (Perkin-Elmer, Australia). A final concentration of 10 nM of T9NB1-RLuc8 and 10 nM of TCC-4′-S—(CH2)2—CO-GFP^2 were used for all assays, in a final volume of 100 μL 2% DMSO in PBS.
To construct a calibration curve, 10 nM of T9NB1-RLuc8 and 10 nM of TCC-4′-S—(CH2)2—CO-GFP^2 were incubated for 5 minutes at 22° C. with a range of different final concentrations of TCC, namely 1, 3, 6.3, 12.5, 25, 50, 100 and 200 nM, added from a stock of TCC in DMSO or DMSO only (2% final concentration in PBS). At the end of the incubation time, 1 μL of coelenterazine 400a (1 mM stock) in EtOH was added to the reaction mixture (final [CLZ400a]=10 μM) and the luminescence intensities recorded immediately. The BRET^2 ratios were calculated and are presented as a function of the concentration of TCC in FIG. 8. […]
On the technique in general: In BRET a luciferase serves as donor, and the signal depends on an acceptor being close.

Experiment [2] deals with Anti-FLAG mAb. Briefly: Competitive BRET calibration for FLAG peptide, mAb-24/36-RLuc8 conjugate, Clariostar plate-reader. In kind it is binding. Particulars: 5 nM mAb-24/36-RLuc8, 10 nM FLAG-GFP^2, 5 minute incubation. The procedure:
A calibration was also performed using the Clariostar plate-reader (BMG) and the antibody-24/36-RLuc8 conjugate. Measurements were made in the bioluminescence mode and the dual linear variable filters were set to 410-80 (Gain: 3300) for RLuc8 emission and 515-30 (Gain: 4095) for GFP^2 emission. An integration time of 1.54 s was used. Coelenterazine 400a was prepared by adding 100 μL ethanol to a dried aliquot (0.5 mM), with 1 μL added to the final assay to give a final concentration of 5 μM. A final concentration of 5 nM of RLuc8-conjugate and 10 nM GFP^2-FLAG was used for assays. The final assay volume was 100 μL with PBS (with BSA (1 mg/ml) used to make up the volume.
To construct a standard curve using the Clariostar, 5 nM mAb-24/36-RLuc8 conjugate was added to 10 nM FLAG-GFP^2 in PBS with BSA (1 mg/mL) and the mixture incubated with unlabelled FLAG peptide (various concentrations) for 5 minutes at 28° C. Coelenterazine 400a was added and the BRET response determined. BRET ratio was calculated by dividing the GFP^2 intensity (average 0-13.86 s) by the RLuc8 intensity (average 0-13.86 s). The BRET ratios were normalised using the normalisation function in Graphpad Prism 7 for Windows, plotted against Log [FLAG] values and fitted with a Log [Agonist] vs normalized response—variable slope model.

Experiment [3] has as its target Anti-FLAG mAb. In words: Competitive BRET binding assay for FLAG peptide, antibody-12/36-RLuc8 conjugate, Fluorostar plate-reader. Particulars: mAb-12/36-RLuc8 50 nM, 200 nM FLAG-GFP^2, Fluorostar. The procedure: In order to determine whether the immunosensors of the present invention can be used to detect and measure the concentration of an analyte, the antibody-12/36-RLuc8 conjugate was incubated with 200 nM FLAG-GFP^2 and varying concentrations of FLAG peptide (from 256 μM to less than 0.5 nM) for 5 minutes before coelenterazine 400a was added and the BRET ratio determined using the Fluorostar plate-reader as described in Example 9. The BRET ratios were plotted against Log [FLAG] values.

The nature of experiment [4]: Luciferase activity with Coelenterazine 400a. In kind it is biochemical. The method, then:
Luciferase activity: Coelenterazine 400a (Cayman Chemicals) (6-phenyl-2,8-bis(phenylmethyl)-imidazo[1,2-a]pyrazin-3(7H)-one) (1 mg) was dissolved in 10.2 mL ethanol and partitioned into 200 μL aliquots which were dried (Speedivac) and stored at −20° C. until use.
Coelenterazine 400a (50 nmol) was dissolved in 50 μL ethanol and 450 μL water was added. RLuc8 monomer (2.4 mg/mL) and RLuc8 dimer (4.8 mg/mL) were diluted in 1 mg/mL BSA in buffer. In a well of a white 96-well Optiplate (Perkin Elmer) was added TBS, PBS or 100 mM sodium phosphate pH 7.0, 2 μL luciferase enzyme (1/10 or 1/100 dilution) and 5 μL of 0.1 mM Coelenterazine 400a solution. The final volume in each well was 100 μL. The light produced was measured in a FLUOstar Optima (BMG Labtech) using luminescence optics and no filter.

Where “and” joins values, the source holds several entries; their conditions need not be identical. Equal entries are not always repeated.

A word on the EC50: it is the concentration giving half of the maximal effect. Read a high EC50 as weaker potency. With `O=C(Nc1ccc(Cl)cc1)Nc1ccc(Cl)c(Cl)c1` [TCC, triclocarban], in experiment [1], the concentration giving a half-maximal response (EC50) is 17.3 nM and 17 nM.
For the molecule DYKDDDDK [FLAG peptide], the EC50 in experiment [2] is 1.41 nM; in experiment [3], 274 nM.

B1: N-His-RLuc8: N-terminal hexahistidine tagged Renilla reniformis luciferase RLuc8-LPETGG, SEQ ID NO: 5 (protein)
chain: MGHHHHHHGTENLYFQGSASKVYDPEQRKRMITGPQWWARCKQMNVLDSFINYYDSEKHAENAVIFLHGNATSSYLWRHVVPHIEPVARCIIPDLIGMGKSGKSGNGSYRLLDHYKYLTAWFELLNLPKKIIFVGHDWGAALAFHYAYEHQDRIKAIVHMESVVDVIESWDEWPDIEEDIALIKSEEGEKMVLENNFFVETVLPSKIMRKLEPEEFAAYLEPFKEKGEVRRPTLSWPREIPLVKGGKPDVVQIVRNYNAYLRASDDLPKLFIESDPGFFSNAIVEGAKKFPNTEFVKVKGLHFLQEDAPDEMGKYIKSFVERVLKNEQLPETGGAALEAS
modifications: N-His-RLuc8
Turning to B1, the “Luciferase activity, monomer versus dimer” value in experiment [4] (Coelenterazine 400a, FLUOstar Optima, no filter) is “more active than the dimeric form”. Moreover, the “Luciferase activity over time” value in experiment [4] (after Coelenterazine 400a addition, data not shown) is given as “decreased very rapidly (over a few seconds)”.

Source of the values: patent publication US12422369B2, “Immunosensor” (PPB Technology Pty Ltd, priority 2019, dated 2025).
